Series [1] deals with Vero cell, T24 cell, A549 cell. Briefly: Nucleic acid-introducing ability, luciferase-expressing plasmid (procedure of Example 9). The class given is cell-based. An excerpt:
A cell line established from monkey kidney (Vero cell) and a human bladder cancer cell (T24 cell) purchased from American Type Culture Collection (ATCC) and human lung cancer cell (A549 cell) purchased from Dainippon Pharmaceutical were inoculated on a 24 well culture plate (manufactured by NALGEN NUNC) at 1×10^5 cells/well. Vero cell and A549 cell were cultivated in DMEM (manufactured by Life Technologies Oriental) supplemented with 10% fetal bovine serum (hereinafter referred to as FBS, manufactured by NICHIREI), and T24 cell was cultivated in McCoy's 5a (manufactured by Life Technologies Oriental) supplemented with 10% FBS in 5% CO2 atmosphere at 37° C. for 24 hours. After removing the medium, opti-MEM (manufactured by Life Technologies Oriental) prepared to have the concentration of the luciferase-expressing plasmid prepared in Example 7 of 1 μg/mL and the concentration of the peptide prepared in Example 1 of 1.25, 2.5, or 5 μM was added, and the cells were cultivated for 5 hours. Next, in the case of Vero cell and A549 cell, the culture medium was replaced with DMEM supplemented with 10% FBS, and in the case of T24 cell, the medium was replaced with McCoy's 5a supplemented with 10% FBS, and cultivation was continued in 5% CO2 atmosphere and at 37° C. for another 24 hours. The luciferase activity expressed in the cell was then measured by the method instructed in luciferase assay system (manufactured by Promega). To be more specific, the cells were washed with phosphate-buffered saline (hereinafter referred to as PBS, manufactured by SIGMA), and the cells were lyzed with Passive Lysis Buffer attached to the kit.
20 μL of this cell lysate and 100 μL of the Luciferase Assay Reagent II attached to the kit was added to a fluorescence-measuring plate (Microlite™ 1 plate, manufactured by Dynatech), and after mixing, fluorescence was measured for 1 second by using a multilabel counter (ARVO™ SY1420 MULTILABEL COUNTER, manufactured by Wallac Beltold.
Concentration of the protein in the cell lysate was measured by mixing 8 μL of the cell lysate and 200 μL of the protein assay solution (manufactured by Biorad) with 792 μL of ultrapure water in a disposable cuvette (UV fluorescent cuvette A204X, manufactured by Funakoshi), allowing the mixture to stand for 5 minutes at room temperature, and measuring the absorption at 595 nm with a spectrophotometer (DU640, manufactured by Beckman). Bovine serum albumin (BSA) was used for the standard protein. By using the thus obtained results, count per 1 second per 1 mg of protein of the cell lysate was calculated to thereby use the count as the luciferase activity, and the highest count in the three conditions of different peptide concentration was designated the gene-introducing ability of the peptide.

Series [2] in a line: Affinity for phosphatidyl serine by surface plasmon resonance (Biacore 2000). The format is binding. As to conditions: in the presence of 0.1 mg/mL BSA. The protocol: The specific affinity of the peptide for phosphatidyl serine was evaluated by means of surface plasmon resonance (SPR) using Biacore 2000 (manufactured by Biacore). To be more specific, phosphatidyl choline was immobilized on flow cell 1, and 50% of phosphatidyl serine and 50% of phosphatidyl choline were immobilized on flow cell 2 of HPA chip (manufactured by Biacore), and ability of the peptide to bind to the phospholipid was evaluated in the presence of 0.1 mg/mL BSA to thereby evaluate the affinity.

A further series concerns plasmid (pUC119). The experiment in a line: Binding ability to plasmid (agarose gel electrophoresis). The settings on record: charge ratio (±ratio) of 3. The method, then: The plasmid prepared by the procedure described in Example 7 (pUC119; final concentration, 20 μg/mL) and the peptides prepared by the procedure described in Examples 1 to 3 were mixed in 20 mM Tris HCl buffer (pH=7.2) containing 150 mM NaCl at a charge ratio (±ratio) of 0 to 3, and the mixture was allowed to stand at 37° C. for 30 minutes. Electrophoresis was then conducted on 1% agarose gel to thereby determine the binding of the plasmid and the peptide.
The ±ratio (charge ratio) indicated in FIG. 11 is the ratio of the number (+) of the positively-charged groups in the peptide to the number (−) of negatively-charged groups in the plasmid. As evident in FIG. 11, the amount of plasmid that became bound to the peptide increased with the increase in the charge ratio (±ratio), and the plasmid was fully bound to the peptide at a charge ratio (±ratio) of 3. The peptides of SEQ ID NO: 2 to SEQ ID NO: 24 were also found to bind at a charge ratio (±ratio) of 3.

The next series concerns Vero cell. The experiment in a line: Luciferase-expressing plasmid introduction into Vero cell. The class given is cell-based, monkey. An excerpt: A cell line established from monkey kidney (Vero cell) and a human bladder cancer cell (T24 cell) purchased from American Type Culture Collection (ATCC) and human lung cancer cell (A549 cell) purchased from Dainippon Pharmaceutical were inoculated on a 24 well culture plate (manufactured by NALGEN NUNC) at 1×10^5 cells/well. Vero cell and A549 cell were cultivated in DMEM (manufactured by Life Technologies Oriental) supplemented with 10% fetal bovine serum (hereinafter referred to as FBS, manufactured by NICHIREI), and T24 cell was cultivated in McCoy's 5a (manufactured by Life Technologies Oriental) supplemented with 10% FBS in 5% CO2 atmosphere at 37° C. for 24 hours. […] The luciferase activity expressed in the cell was then measured by the method instructed in luciferase assay system (manufactured by Promega). […]
20 μL of this cell lysate and 100 μL of the Luciferase Assay Reagent II attached to the kit was added to a fluorescence-measuring plate (Microlite™ 1 plate, manufactured by Dynatech), and after mixing, fluorescence was measured for 1 second by using a multilabel counter (ARVO™ SY1420 MULTILABEL COUNTER, manufactured by Wallac Beltold. […]

A further series deals with nuclease Bal 31. Briefly: Nuclease resistance-imparting ability for natural (P=O form) oligonucleotide. The format is biochemical. As to conditions: 2 U Bal 31, 30° C., 60 minutes. The method, then: Nuclease resistance-imparting ability for natural (P═O form) oligonucleotide was evaluated. To be more specific, 2 U of nuclease Bal 31 (manufactured by Takara Shuzo) was added to 20 mM Tris-HCl buffer (pH=8) containing 50 μM of the peptide of SEQ ID NO: 1 prepared in Example 1, 3 μM of P═O form oligonucleotide prepared in Example 6, 150 mM NaCl, 12 mM MgCl2, and 12 mM CaC12, and the reaction was allowed to take place at 30° C. for 60 minutes. Next, the oligonucleotide which escaped from the decomposition was extracted with phenol/chloroform, and subjected to electrophoresis by the procedure described in Example 8 to stain the oligonucleotide.

The nature of series [3]: Measurement of turbidity in BSA (absorbance at 600 nm). The settings on record: 1% BSA, peptide 50 μM. The class given is physicochemical. The method, then: The solutions were evaluated for their absorbance at a wavelength of 600 nm by using a spectrophotometer (DU640, manufactured by Beckman).

The results in this text go back to US20050277586A1, “Peptide chemically modified with polyethylene glycol” (priority 2002, published 2005).

With “TRYLRIHPRSWVHQIALRLRYLRIHPRSWVHQIALRS [SEQ ID NO: 1]”, the Nucleic acid-introducing ability in series [1] (luciferase plasmid 1 μg/mL, highest count of peptide 1.25, 2.5 or 5 μM, cell line not stated) is given as 3+ (1,000,000 to less than 10,000,000). For the same sequence, in series [1] (procedure of Example 9), the “Ability of introducing the nucleic acid into a cell” value is recorded as “found to have the ability of introducing the nucleic acid into a cell”. Moreover, the “Binding to flow cell 2 (50% phosphatidyl serine, 50% phosphatidyl choline) and flow cell 1 (phosphatidyl choline)” value in series [2] is reported as “stronger”. Also, the “Binding of plasmid to the peptide” value in the series on plasmid (pUC119) is “fully bound”. The Luciferase activity in the series with Vero cell is 2.5 × 10^6 cps/mg protein. Also, the “Nuclease resistance-imparting ability for natural (P=O form) oligonucleotide” value with nuclease Bal 31 is recorded as “exhibit nuclease resistance-imparting ability”. In addition, in series [3], the “OD 600” value was determined as 0.03.
